The results in this text go back to patent US20190388389A1, “METHODS AND COMPOSITIONS OF CARNOSOL FOR INHIBITING UVB-INDUCED SKIN DAMAGE” (Ohio University, priority 2017, published 2019).

In one test the test system is NF-κB. Briefly: Electrophoretic mobility shift assay (EMSA), HaCaT nuclear extract. It is filed as cell-based, Human. Conditions: 20 μM carnosol; for NF-κB activity induction (EMSA): UVB alone about 2.6 fold. The protocol:
FIGS. 7A-7F: Carnosol inhibited UVB-induced NF-κB activation. Cells were exposed to UVB radiation in the presence or absence of carnosol. Cells were lysed at indicated time point and protein levels were measured by western blot analysis. (FIG. 7A) Western blot for IκB protein level in HaCaT cells at 2, 4 h post UVB radiation at 1, 10 or 20 μM carnosol treatment. (FIG. 7B) Western blot analysis for IκB protein level in HaCaT cells at 6 h post UVB radiation in the presence or absence of carnosol. (FIG. 7C) Western blot analysis for IκB protein level in MEF cells at 6 h post UVB radiation in the presence or absence of carnosol. (FIG. 7D) Western blot for 5276 site phosphorylation of NF-κB in HaCaT cells at 6 h post UVB with indicated carnosol concentration. (FIG. 7E) EMSA assay for HaCaT cells at 2, 4, 6 h post UVB radiation in the presence or absence of carnosol (20 μM). (FIG. 7F) Statistical analysis of the EMSA assay using two to three sets of independent experiments. *p<0.05 versus control group, **p<0.05 versus UV group at indicated time point.
A 22-bp synthetic oligonucleotide (5′-[…]-3′) [SEQ ID NO:1] containing the specific NF-κB-binding site was annealed and labeled with γ-^32P-ATP using T4 polynucleotide kinase. A DNA-binding reaction mixture of total 20 μL containing poly(dI:dC), labeled probe, binding buffer (10 mM pH 8.0 Tris HCl, 150 mM KCl, 0.5 mM EDTA, 0.1% Triton-X 100, 12.5% Glycerol and 0.2 mM DTT) and 10 jag of cell nuclear extract was incubated at room temperature for 30 min and loaded onto a 5% nondenaturing polyacrylamide gel for electrophoresis. The gel was run in 0.5×TBE buffer at 120 V, transferred to a double layer of Whatman paper and dried on a gel dryer for 45-60 mM at 76° C. The dried gel was used to expose an autoradiography film (Denville) at −80° C. and the NF-κB bound ^32P-labeled DNA was detected, and the band intensity was analyzed by Image J.
In general terms: In EMSA bound probe runs differently from free probe, usually more slowly.

The next test has as its system NO* in HaCaT cells. The test is described as follows: Nitric oxide measurement (DAF-2DA) after UVB radiation. Format: cell-based, Human. Conditions: 20 μM carnosol. The protocol: FIGS. 4A-4B: Quantitative analysis of NO* and ONOO^− after UVB radiation. HaCaT cells were irradiated with UVB radiation in the presence or absence of carnosol (20 μM). At indicated time point, cells were stained with DAF-2DA or DAR. The fluorescent intensity was then measured and normalized to cell viability. (FIG. 4A) Quantitative measurement of NO*. (FIG. 4B) Quantitative measurement of ONOO^−. *p<0.05 versus corresponded group with carnosol treatment upon UVB radiation.
The level of NO* was measured by 5 mM diaminofluorescein diacetate (DAF-2DA) (ex490/em520 nm) and ONOO^− was measured by 5 mM diaminorhodamine (DAR) (ex488/em515 nm). 1×10^5 HaCaT cells were seeded in 96-well plate one day before measurement. […] The cells were then incubated in dark for 2 h at room temperature and the fluorescence was measured by luminometer (Molecular devices Spectra Max M2). The reading was then normalized by AlamarBlue cell viability assay (Life technology). 10% of the Alamar Blue reagent was added to cells with medium followed by 2 h incubation at 37° C. in dark then read the fluorescent at ex570/em590 nm using luminometer (Molecular devices Spectra Max M2).
Both NO* and ONOO^− are induced by UVB radiation. By using DAF-2DA (5 mM) and DAR (5 mM), the effect of carnosol on intracellular NO* and ONOO^− level, in a time dependent manner upon UVB radiation, was also measured.

Test [1] deals with 6-4 photoproducts (6-4PP). Briefly: Quantitative measurement of 6-4 photoproducts after UVB. Format: cell-based. Conditions: with vs without carnosol. From the text:
FIG. 5F: Quantitative measurement of 6-4 photoproducts (6-4PP), with and without UVB, and with and without carnosol. *p<0.05 versus corresponded control group
There are two major forms of DNA damage caused by UVB radiation: one is the direct DNA damage which forms CPD; the other is the oxidation-caused DNA damage, which causes the formation of 6-4 PP. In order to identify which form of DNA damage is protected by carnosol, a quantitative assay to identify the production of both DNA damage products after UVB radiation with or without carnosol treatment was performed.

The test system of test [2] is γH2AX (phosphorylated H2AX). The test is described as follows: Western blot of DNA damage marker, HaCaT cells. Format: cell-based, Human. As to conditions: 15 min and 1 h post UVB 50 mJ/cm^2. The protocol:
(§1) FIGS. 5A-5B: Carnosol protects UVB-induced DNA damage. (FIG. 5A) HaCaT cells and (FIG. 5B) MEF cells were exposed to 50 mJ/cm^2 UVB radiation in the presence or absence of carnosol. Cells were lysed at indicated time point and protein levels of phosphorylated H2AX and Chk were measured. The data represents three sets of independent experiments.
(§2) Cells were lysed with Nonidet P-40 (NP-40) lysis buffer (2% NP-40, 80 mM NaCl, 100 mM Tris-HCl pH 8.0, 0.1% SDS) with proteinase inhibitor mixture (Complete™, Roche Molecular Biochemicals) at indicated time point. Cell lysate was incubated on ice for 15 min and then centrifuged at 14,000 rpm at 4° C. for 15 min. Protein concentration was measured by Protein DC Assay kit (Bio-Rad Laboratories). Equal amounts of protein were subjected on SDS-PAGE and transferred to a nitrocellulose membrane. The membrane was then blocked in 5% milk in Tris buffered saline plus Tween 20 ® (TBST) for 45 min and probed with anti-yH2AX (Cell Signaling), anti-pCHK (Cell Signaling), anti-p276-NF-κB (Santa Cruz), anti-NF-κB p65 (Santa Cruz), anti-IκB (Santa Cruz), or anti-β-actin (Santa Cruz) at 4° C. overnight. After washing with TBST, the membrane was incubated with corresponding HRP-conjugated anti-rabbit or anti-mouse antibody for 45 min at room temperature. […]
Background: In western blotting, separated proteins are transferred to a membrane and probed.

Another test has as its system phosphor-Chk. Briefly: Western blot of DNA damage marker, HaCaT cells. It is filed as cell-based, Human. As to conditions: 15 min and 1 h post UVB 50 mJ/cm^2. How it is done:
as §1, §2

Take `CC(C)c1cc2c(c(O)c1O)[C@@]13CCCC(C)(C)[C@@H]1C[C@@H]2OC3=O` [carnosol]: in the test on NF-κB (2 h post UVB, UVB alone induced by 20%), the “NF-κB activity (DNA binding, EMSA)” value is listed as “no statistically significant change”. In addition, the “NF-κB activity induction (EMSA)” value in the test on NF-κB (4 h post UVB) is 2.2 fold; with NF-κB (6 h post UVB), 1.5 fold. Besides, the “reduction of NO* level” value in the test with NO* in HaCaT cells (average from 2 h to 24 h post UVB) is on record as “about 40%”. Besides, in the test with NO* in HaCaT cells (no UVB), the “NO* level of cells without radiation” value is on record as “little effect”. The “6-4 PP formation after UVB radiation” value in test [1] is “no significant reduction”. Moreover, the “phosphorylation level of H2AX” value in test [2] was “significantly reduced”. Further, the “phosphorylation level of Chk” value in the test on phosphor-Chk is “significantly reduced”.
